Each molecule was assayed against T1, HIV protease (Human immunodeficiency virus type 1 group M subtype B, UniProt P04585) (assay: biochemical). Details: partially purified HIV protease expressed in E. coli; substrate succinyl-Ser-Leu-Asn-Tyr-Pro-Ile isobutylamide; citrate buffer pH 5.5; 37° C.; read-out: I50 (concentration of test compound required to give 50% inhibition).
T1 construct: HIV protease was expressed in E. coli; made in house; host or cells: E. coli
Experimental: HIV protease was expressed in E. coli and partially purified from soluble extracts of the bacterium by ammonium sulphate fractionation (0-30%). Protease activity was assayed using the protected hexapeptide succinyl-Ser-Leu-Asn-Tyr-Pro-Ile isobutylamide as the substrate. Cleavage of the substrate was quantified by measuring the production of H-Pro-Ile isobutylamide by the spectrophotometric assay of N-terminal proline.
1.25 mM of substrate were dissolved in 125 mM of citrate buffer (pH 5.5) containing 0.125 mg/ml of Tween 20. 10 μl of a solution of various concentrations of the test compound (dissolved in methanol or […]) and 10 μl of protease were added to 80 μl of the above buffered substrate. Digestion was carried out at 37° C. for a fixed period of time and was terminated by the addition of 1 ml of colour reagent [30 μg/ml of isatin and 1.5 mg/ml of 2-(4-chlorobenzoyl)benzoicacid in 10% acetone in ethanol (vol./vol.)]. The solution was heated in a water bath and then the pigmented residues were re-dissolved in 1 ml of 1% pyrogallol in 33% water in acetone (wt./vol./vol.). The optical density of the solution was measured spectrophotometrically at 599 nm.

IC50 [nM]	SMILES
85	CC(C)(C)NC(=O)C1Cc2ccccc2CN1C[C@@H](O)[C@H](Cc1ccccc1)NC(=O)[C@H](CC(N)=O)NC(=O)OCc1ccccc1 (mixture of isomers) [Compound I, 2-[3(S)-[[N-(benzyloxycarbonyl)-L-asparaginyl]amino]-2(R)-hydroxy-4-phenylbutyl]-N-tert.butyl-1,2,3,4-tetrahydro-3(R,S)-isoquinolinecarboxamide]
750	CC[C@H](C)[C@H](NC(=O)[C@@H]1CCCN1CC(O)[C@H](Cc1ccccc1)NC(=O)[C@H](CC(N)=O)NC(=O)[C@H](CC(C)C)NC(=O)OCc1ccccc1)C(=O)NCC(C)C (mixture of isomers) [Compound E, N^2-[N-[3(S)-[[N-[N-(benzyloxycarbonyl)-L-leucyl]-L-asparaginyl]amino]-2(R and S)-hydroxy-4-phenylbutyl]-L-prolyl]-N^1-isobutyl-L-isoleucinamide]
130	CC[C@H](C)[C@H](NC(=O)[C@@H]1CCCN1CC(O)[C@H](Cc1ccccc1)NC(=O)[C@H](CC(N)=O)NC(=O)OCc1ccccc1)C(=O)NCC(C)C (single isomer, unassigned) [Compound D]
750	CC(C)CCNC(=O)[C@@H]1CCCN1CC(O)[C@H](Cc1ccccc1)NC(=O)[C@H](CC(N)=O)NC(=O)OCc1ccccc1 (single isomer, unassigned) [Compound F]
80	CC(C)CNC(=O)[C@@H]1CCCN1CC(O)[C@H](Cc1ccccc1)NC(=O)[C@H](CC(N)=O)NC(=O)OCc1ccccc1 (single isomer, unassigned) [Compound G, N^2-[3(S)-[[N-(benzyloxycarbonyl)-L-asparaginyl]amino]-2(R or S)-hydroxy-4-phenylbutyl]-N^1-isobutyl-L-prolinamide]
870	CC(C)(C)OC(=O)[C@@H]1CCCN1CC(=O)[C@H](Cc1ccccc1)NC(=O)[C@H](CC(N)=O)NC(=O)OCc1ccccc1 [Compound A, N-[N-[[N-(benzyloxycarbonyl)-L-asparaginyl]-L-phenylalanyl]methyl]-L-proline tert.butyl ester]
10	CC(C)(C)OC(=O)[C@@H]1CCCN1C[C@@H](O)[C@H](Cc1ccccc1)NC(=O)[C@H](CC(N)=O)NC(=O)c1ccc2ccccc2c1 [Compound H, N-[2(R)-hydroxy-3(S)-[[N-(2-naphthoyl)-L-asparaginyl]amino]-4-phenylbutyl]-L-proline tert.butyl ester]

Same assay, conditions: read-out: I50 (concentration of test compound required to give 50% inhibition)

SMILES	IC50 [nM]
CC(C)(C)OC(=O)[C@@H]1CCCN1C[C@@H](O)[C@H](Cc1ccccc1)NC(=O)[C@H](CC(N)=O)NC(=O)OCc1ccccc1 [Compound B, N-[3(S)-[[N-(benzyloxycarbonyl)-L-asparaginyl]amino]-2(R)-hydroxy-4-phenylbutyl]-L-proline tert.butyl ester]	150
CC(C)(C)OC(=O)[C@@H]1CCCN1C[C@H](O)[C@H](Cc1ccccc1)NC(=O)[C@H](CC(N)=O)NC(=O)OCc1ccccc1 [Compound C, N-[3(S)-[[N-(benzyloxycarbonyl)-L-asparaginyl]amino]-2(S)-hydroxy-4-phenylbutyl]-L-proline tert.butyl ester]	300

From patent US5157041A, “Amino acid derivatives” (Hoffmann-La Roche Inc., priority 1988, dated 1992)
